One series relates to L1210/0 cells. The experiment in a line: L1210/0 cell proliferation ([3H]-thymidine incorporation). Type of series: cell-based, Murine. As for the experimental part: (§1) Murine lymphocytic leukemia cell lines, L1210/CPA and L1210/0 (als. known as Le/CPA and Le/0) were kindly provided by Dr. F. Struck, Southern Research Institute, Birmingham, AL. Cells were grown in RPMI-1640, supplemented with 10% horse serum, 100 units/ml penicillin and 100 µg/ml streptomycin. The cultures were incubated at 37°C in a humidified atmosphere with 5% CO₂ in air. Bone marrow cells were flushed from femurs of mice with RPMI-1640, using a tuberculin syringe fitted with a 25 gauge meedle. For spleen cells, spleens were removed and passed through a fine wire mesh to get a single homogenous cell suspension. In either case, cells were centrifuged, washed twice and resuspended in the drug exposure medium (see below). Cell viability was determined by trypan blue exclusion and the cell suspension was diluted to the desired concentration.
(§2) Murine leukemic cells and bone marrow/spleen cells were treated with SDA (1 x 10^-6 M to 5 x 10⁻⁵ M) in RPMI-1640 or PBS based solution. Wherever mentioned, cells were pretreated with DEAB (10-30 µM) for 30-60 min at 37°C and then exposed to SDA.
(§3) For [³H]-thymidine incorporation, drug or vehicle treated bone marrow or spleen cells were plated in RPMI-1640, containing 10% fetal bovine serum, 10 µM β-mercaptoethanol, 25 mM HEPES and 2 mM glutamine. Con-A (4 µg/ml and […]) was used as mitogens for bone marrow and spleen cells. Three days later, [³H]-thymidine (0.2 µCi/well) was added and cells were harvested after 12-18 hrs. L1210/CPA and L1210/0 cells (0.1 - 1 x 10⁵ cells/well were plated in RPMI-1640 containing 10% horse serum. [³H]-thymidine was added after 24 hrs and cells were filtered on GF/B filter paper for scintillation counting.
A general note: Incorporation of labelled thymidine or its analogues reports DNA synthesis.

In the next series the test system is splenic T cell. The experiment in a line: Concanavalin A-stimulated splenic T cell proliferation ([3H]-thymidine incorporation). Type of series: cell-based, Mouse. As for the experimental part:
Splenic cells were treated with various concentrations of SDA or an analogue for 30 min. at 37°C. Cells were washed and cultured in the presence of Concanavalin A for 3 days. [³H] Thymidine 0.1µCi/well was added and cells were harvested after 18-24 hrs.
(§4) Mouse spleen cells were cultured for 3 days in flat bottom microtiter relates at 10⁵ cells per well in the presence of […] of Con A. 3H-thymidine (0.1 microcurie/well) was added for the last 4-6 hours of the culture period. Cells were harvested as described above.
as §3

The subject of the next series is Murine bone marrow cells. The experiment in a line: Con A driven mouse bone marrow cell proliferation ([3H]-thymidine incorporation). The class given is cell-based. The method, then:
Mouse spleen and bone marrow cells were incubated separately with different concentrations of spermine dialdehyde in vitro for 1 hour. Cells were washed extensively and set up in a Con A stimulated proliferation assay. A graph is depicted wherein percentage response is plotted as a function of various concentrations of spermine dialdehyde.
Mice were sacrificed by cervical dislocation and disinfected by dipping in a Dettol solution. Bone marrow cells were obtained from suitable long bones by flushing with a […] needle. Cells were then washed three times with RPMI before use.
as §4
Mouse bone marrow and spleen cells were each incubated for 1 hour with different concentrations of spermine dialdehyde. Cells were then washed 3 times with RPMI and set up in a Con A driven proliferation assay. Results are depicted in Figure 2.
(§5) For [³H]-thymidine incorporation, drug or vehicle treated bone marrow or spleen cells were plated in RPMI-1640, containing 10% fetal bovine serum, 10 µM β-mercaptoethanol, 25 mM HEPES and 2 mM glutamine. Con-A (4 µg/ml and […]) was used as mitogens for bone marrow and spleen cells. […]

Another series concerns the target Ornithine decarboxylase (Mus musculus, UniProt P00860). The experiment in a line: Ornithine decarboxylase inhibition. Type of series: biochemical. The conditions noted are these: Figure 10.
The conditions of series [1]: intraperitoneally; Israel et al.; cited from earlier work.
The next series deals with Human T lymphocytes. The experiment in a line: PHA driven human T cell proliferation after 1 hour incubation. Type of series: cell-based. The conditions noted are these: 0.62 x 10⁻² mM, 1 hour at 37°C, washed; Figure 1. The method, then:
Human T & B lymphocytes were incubated separately with different concentrations of spermine dialdehyde in vitro for 1 hour. Cells were washed extensively and set up in a PHA (for T cell) or PWM (B cell) proliferation assay. A graph is depicted wherein percentage of response is plotted as a function of concentration of spermine dialdehyde.
Peripheral blood lymphocytes (PBL) were obtained from the blood of normal donors by using standard Ficoll-Hypaque gradient techniques. The T and non-T cells were separated by standard sheep red blood cell (SRBC) rosetting technique. Briefly, 5 x 10⁶/ml PBL were incubated with 1% neuraminidase-treated SRBC, and rosetted cells were separated from non-rosetted cells in a Ficoll-Hypaque gradient. The rosetted cells were designated as T cells. Purified B lymphocytes were obtained from non-rosetted cells by removal of residual T cells using the Pan T monoclonal antibody OKT 11 and complement.
T cell proliferation: 7 x 10⁴ - 10⁵ human T lymphocytes were cultured in flat bottom microtiter plates (Flow) in the presence of 0.1% PHA-P or 1/64 PWM for 4 days. 3H-thymidine (0.1 MCi/well) was added for the last 6 hours of the culture period. […] Cell associated radioactivity was determined by scintillation counting in an automated counter. All of the results were expressed as % response calculated according to the formula: [formula] […]

The subject of the next series is L1210/CPA cells. The experiment in a line: L1210/CPA cell proliferation ([3H]-thymidine incorporation). Type of series: cell-based, Murine. As for the experimental part: as §1, §2, §5

Chain of Ornithine decarboxylase (P00860 whole entry): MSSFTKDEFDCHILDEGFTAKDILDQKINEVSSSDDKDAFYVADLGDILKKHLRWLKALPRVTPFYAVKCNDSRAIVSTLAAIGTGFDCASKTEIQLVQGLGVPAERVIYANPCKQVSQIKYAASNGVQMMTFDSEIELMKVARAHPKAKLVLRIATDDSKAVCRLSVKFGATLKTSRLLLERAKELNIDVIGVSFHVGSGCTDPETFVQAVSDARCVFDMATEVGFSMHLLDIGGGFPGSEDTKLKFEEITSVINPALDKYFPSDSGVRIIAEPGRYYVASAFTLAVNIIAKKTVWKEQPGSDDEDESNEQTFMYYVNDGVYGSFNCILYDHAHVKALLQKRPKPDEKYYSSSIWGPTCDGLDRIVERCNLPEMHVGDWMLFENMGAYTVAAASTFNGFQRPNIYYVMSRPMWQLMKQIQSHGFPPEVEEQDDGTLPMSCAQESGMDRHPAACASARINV
Description for Ornithine decarboxylase: The figure illustrates the comparative profile of the inhibition of key regulatory enzymes of polyamine synthesis by SDA, its analogue, butyl dialdehyde (BDA), difluoromethyl orinithine (DFMO) and methyl glyoxal bis (guanylhydrazone) (MGBG).

`O=CCCNCCCCNCCC=O` [SDA, NN′-Bis-(3-propionaldehyde)-1-4-diaminobutane]: the “effect of DEAB pretreatment on cytotoxicity of SDA” value with L1210/0 cells (DEAB (20 µM) pretreatment) is “little or no effect”; in the series with L1210/CPA cells (DEAB (20 µM) pretreatment) it was “potentiated the cytotoxicitty of SDA”. The IC50 in the series on L1210/0 cells (Mus musculus, L1210/0, [³H]-thymidine incorporation, read-out: mean IC₅₀) worked out at 4.66 µM; in the series on splenic T cell (Mus musculus, T-cell, cells treated 30 min at 37°C, washed, cultured with Concanavalin A for 3 days, Figure 8, read-out: IC₅₀), 700 nM; in the series with L1210/CPA cells (Mus musculus, L1210, [³H]-thymidine incorporation, read-out: mean IC₅₀), 8.3 µM. For the same compound, the “sensitivity of L1210/0 cells relative to L1210/CPA cells” value in the series on L1210/0 cells (proliferation assays) was found to be 2 fold. In the series with splenic T cell (1 hour incubation, Figure 2), the “susceptibility of spleen cells to suppression compared with bone marrow cells” value is “much more susceptible to suppression”. For the same compound, the “effect of addition of DEAB on the potency of SDA” value with splenic T cell (DEAB (20 µM)) is recorded as “no significant effect”. In addition, the IC100 in the series with splenic T cell (Mus musculus, T-cell, read-out: SDA treatment that abolished Con A-induced murine spleen cell proliferation) fell in the range of 8 to 12 µM. Also, in the series with Murine bone marrow cells (DEAB (30 µM) pretreatment), the “[³H]-thymidine incorporation after DEAB pretreatment” value is “higher susceptibility at lower concentrations of SDA”. Besides, the “[³H]-thymidine incorporation” value with Murine bone marrow cells (treated in PBS based medium, cultured 3 days) is “dose dependent decrease”. Further, the “inhibition of ODC (in words)” value on Ornithine decarboxylase is given as “inhibited both of the key enzymes”. In addition, the LD100 in series [1] is 40 mg/kg. In addition, the “inhibited T cell proliferation” value with Human T lymphocytes was 85%.

The values above are taken from patent EP0366451A2, “The use of oxidized polyamines, especially NN'-Bis-(3-propionaldehyde)-1-4-diaminobutane (sperminedialdehyde) as immunosuppressive agents” (ORTHO PHARMACEUTICAL CORPORATION, priority 1988, dated 1990).
